Laboratory results as given in PubChem BioAssay (NCI).
Where “and” joins values, the source holds several entries; their conditions need not be identical. Identical values can stand only once.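 Tested at 5 concentrations; 48 h exposure; 96-well plates; endpoints linearly interpolated, else capped at highest concentration. The concentration for 50% growth inhibition is given as GI50. TGI: total growth inhibition.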

How the values were obtained:
Assay in all cases: DTP human tumour cell line panel, 48 h
M14 melanoma = test system: M14 melanoma
NCI/ADR-RES ovarian = test system: NCI/ADR-RES ovarian
NCI-H522 lung = test system: NCI-H522 lung
T-47D breast = test system: T-47D breast
HOP-92 NSCLC = test system: HOP-92 NSCLC
MDA-MB-435 = test system: MDA-MB-435
DMS 273 small cell lung = test system: DMS 273 small cell lung

Structure (SMILES)	GI50 (M14 melanoma)	TGI (M14 melanoma)	GI50 (NCI/ADR-RES ovarian)	TGI (NCI/ADR-RES ovarian)	GI50 (NCI-H522 lung)	TGI (NCI-H522 lung)	GI50 (T-47D breast)	TGI (T-47D breast)	GI50 (HOP-92 NSCLC)	TGI (HOP-92 NSCLC)	GI50 (MDA-MB-435)	TGI (MDA-MB-435)	TGI (DMS 273 small cell lung)
CSC(=S)NCc1cn(C)c2ccccc12	64.8 µM	> 100 µM	30 µM	> 100 µM	21.5 µM	86.1 µM	29.5 µM	> 100 µM	23.9 µM	> 100 µM	27.8 µM	> 100 µM	–
C=C(CN1CCc2ccccc2C1)c1ccc(CCCC(=O)Nc2ccccc2N)cc1	15.8 µM	33 µM	17.4 µM	51.6 µM	1.92 µM	7.15 µM	11.2 µM	59.3 µM	–	–	11.9 µM	26.4 µM	–
COc1cc(C=NCC(=O)CSC(c2ccccc2)c2ccccc2)ccc1O	13.2 µM	25.9 µM	7.78 µM	29.2 µM	–	–	2.86 µM	12.3 µM	10 µM	21.7 µM	14.3 µM	35.7 µM	–
Cc1cc(C)c(-c2c(O)c(Br)c(-c3c(C)cc(C)c(Br)c3C)c(O)c2Br)c(C)c1Br	1.97 µM	4.71 µM	2.88 µM	10.7 µM	1.67 µM	3.6 µM	1.7 µM	4.84 µM	0.66 µM	5.67 µM	2.35 µM	8.55 µM	–
O=C(O)C(Cc1ccccc1)N1C(=O)/C(=C/C(Cl)=C/c2ccc([N+](=O)[O-])cc2)SC1=S (stereo not given)	–	–	3.39 µM	> 100 µM	1.72 µM	4.47 µM	–	–	2.35 µM	5.71 µM	2.27 µM	6 µM	–
O=C1c2ccccc2-c2c1c1ccccc1c(=O)n2CCNCCNCCNCCNCCn1c2c(c3ccccc3c1=O)C(=O)c1ccccc1-2	–	–	> 53 µM	96.9 µM	0.0202 µM	0.474 µM	1.99 µM	> 100 µM	0.939 µM	2.5 µM	–	–	–
CCNc1ccc2c(c1)C(=O)N(OS(C)(=O)=O)C2=O	–	> 100 µM	–	> 100 µM	–	34.8 µM	–	> 100 µM	–	> 100 µM	–	> 100 µM	–
O=C(O)CCN1C(=S)CSC1=S	–	> 100 µM	–	> 100 µM	–	> 100 µM	–	> 100 µM	–	> 100 µM	–	> 100 µM	–
CCOC(=O)c1sc(NC(=O)COc2ccc(/C=C3\CCc4cc(OC)ccc4C3=O)cc2)nc1C	13.3 µM	26.2 µM	8.49 µM	37.5 µM	4.56 µM	12.1 µM	9.13 µM	30.7 µM	1.18 µM	4.61 µM	4.05 µM	18.3 µM	–
COc1cc(C2CC(c3ccc(Cl)cc3)=NN2C(C)=O)ccc1Oc1ccnc2cc(Cl)ccc12 (stereo not given)	> 100 µM	> 100 µM	–	–	–	–	2.85 µM	> 100 µM	2.32 µM	62.6 µM	> 100 µM	> 100 µM	–
C/C(=N\NC(=S)N1CCCC1)c1ccccn1	< 0.01 µM	4.06 µM	< 0.01 µM	10.6 µM	0.171 µM	6.09 µM	< 0.01 µM	11 µM	0.0508 µM	7.98 µM	0.0299 µM	21.8 µM	–
CN(C)CCN=c1nc2c(c(N)n1-c1ccccc1)c(=S)n(-c1ccccc1)c(=S)n2-c1ccccc1	1.69 µM	3.81 µM	10.4 µM	26.7 µM	2.39 µM	6.82 µM	1.88 µM	4.34 µM	1.62 µM	12.6 µM	1.75 µM	3.9 µM	–
O=C(CC1(O)CCCCC1)OC1CCCC1	–	> 100 µM	–	> 100 µM	–	> 100 µM	–	> 100 µM	–	> 100 µM	–	> 100 µM	–
CC(C)(C)OC(=O)NCCCCCCCCCCCCn1c2c(c3ccccc3c1=O)C(=O)c1ccccc1-2	> 100 µM	> 100 µM	51.2 µM	> 100 µM	45 µM	> 100 µM	> 100 µM	> 100 µM	16.8 µM	39.9 µM	> 100 µM	> 100 µM	–
COc1ccc(C(=O)Cn2c(C(=O)c3ccc(Cl)cc3)nc(-c3ccccc3)c2-c2ccccc2)cc1	> 100 µM	> 100 µM	> 100 µM	> 100 µM	> 100 µM	> 100 µM	> 100 µM	> 100 µM	7.43 µM	83.1 µM	> 100 µM	> 100 µM	–
COC1CCC(OC)C(c2nc3sccn3c2/C=N/N=C(N)N)C1 (stereo not given)	1.96 µM	35.4 µM	> 100 µM	> 100 µM	30.4 µM	> 72.2 µM	31.9 µM	> 65.4 µM	2.76 µM	30.5 µM	17.2 µM	36 µM	–
C=C(CN1CCN(c2ccccn2)CC1)c1ccc(C(=O)Nc2ccccc2N)cc1	8.48 µM	> 50 µM	1.31 µM	5.05 µM	1.56 µM	9.36 µM	1.23 µM	20.9 µM	5.7 µM	23.1 µM	0.522 µM	1.4 µM	–
Fc1ccc(-c2ncn(C3CCNCC3)c2-c2ccnc(Oc3ccc(Cl)cc3)n2)cc1	4.65 µM	9.09 µM	6.03 µM	> 22.7 µM	4.49 µM	9.34 µM	2.74 µM	6.71 µM	–	–	4.04 µM	8.21 µM	–
CCOC(=O)/C=C/c1ccc([N+](=O)[O-])o1	2.71 µM	8.74 µM	–	–	1.34 µM	3.24 µM	5.55 µM	25.9 µM	2.66 µM	6.36 µM	2.1 µM	4.67 µM	–
CCOC1=C/C(=N\Nc2ccc([N+](=O)[O-])cc2)CCC1	–	> 100 µM	–	> 100 µM	–	23.4 µM	–	–	–	> 100 µM	–	> 100 µM	–
COc1ccc(-c2cn3ccnc3c(-c3ccc(Cl)cc3)n2)cc1	5.95 µM	> 100 µM	3.77 µM	28.2 µM	> 100 µM	> 100 µM	–	–	10.2 µM	48.4 µM	2.56 µM	8.62 µM	–
C=C1C(=O)O[C@@H]2C[C@@H](C)[C@@H]3C=CC(=O)[C@@]3(C)[C@@H](OC(=O)CCCC(=O)O[C@H]3[C@@H]4C(=C)C(=O)O[C@@H]4C[C@@H](C)[C@@H]4C=CC(=O)[C@]43C)[C@H]12	–	0.0584 µM	–	4.12 µM	–	0.0253 µM	–	0.0666 µM	–	0.104 µM	–	0.0329 µM	–

Structure (SMILES)	GI50 (M14 melanoma)	TGI (M14 melanoma)	GI50 (NCI/ADR-RES ovarian)	TGI (NCI/ADR-RES ovarian)	GI50 (NCI-H522 lung)	TGI (NCI-H522 lung)	GI50 (T-47D breast)	TGI (T-47D breast)	GI50 (HOP-92 NSCLC)	TGI (HOP-92 NSCLC)	GI50 (MDA-MB-435)	TGI (MDA-MB-435)	TGI (DMS 273 small cell lung)
CC(C)(O)c1cc(Nc2cc(Oc3cn(C4CC4)nc3C3CCOCC3)ccn2)ccn1	89.1 µM	> 100 µM	> 100 µM	> 100 µM	52.2 µM	> 100 µM	23.6 µM	> 100 µM	21.3 µM	> 100 µM	> 100 µM	> 100 µM	–
CC(C)C(Br)C(=O)NCC(=O)O (stereo not given)	–	> 100 µM	–	> 100 µM	–	> 100 µM	–	> 100 µM	–	> 100 µM	–	> 100 µM	–
CCCCS(=O)(=O)c1cc(Nc2ccc(O)c3c2C(=O)c2ccccc2C3=O)ccc1C	2.87 µM	> 100 µM	> 100 µM	> 100 µM	> 100 µM	> 100 µM	> 100 µM	> 100 µM	> 100 µM	> 100 µM	–	–	–
CCCCC[C@H]1C/C=C2/C(=O)C=C[C@@H]2C/C=C\CCCC(=O)O1	0.163 µM	5.1 µM	0.181 µM	1.13 µM	0.0936 µM	0.236 µM	–	–	0.577 µM	2.18 µM	0.169 µM	0.588 µM	–
OC(Cc1cccc2ccccc12)CN1CCC(c2ccccc2)CC1 (stereo not given)	–	28.7 µM	–	28.5 µM	–	21.9 µM	–	40.6 µM	–	27.4 µM	–	28.3 µM	–
CN1C2C=CC(=O)C1C(C#N)C2 (stereo not given)	29.5 µM and 69.1 µM	89.7 µM and > 100 µM	–	> 100 µM	–	–	–	75.9 µM and > 100 µM	–	57.7 µM and 93.5 µM	–	> 100 µM	–
Cc1cc(C)nc(NC(=O)COc2ccc(Cl)cc2)c1	–	> 100 µM	–	> 100 µM	–	> 100 µM	–	> 100 µM	–	> 100 µM	–	> 100 µM	–
COC(=O)c1c(C(=O)O)c(-c2ccccc2)c(-c2ccccc2)c(-c2ccccc2)c1-c1ccccc1	> 100 µM	> 100 µM	> 100 µM	> 100 µM	88.5 µM	> 100 µM	75.7 µM	> 100 µM	> 100 µM	> 100 µM	> 100 µM	> 100 µM	–
Cn1cc(-c2csc(-c3ccc(Cl)cc3)n2)c2cccnc21	12 µM	24.8 µM	15.8 µM	34.4 µM	13.6 µM	38.2 µM	5.17 µM	36.4 µM	2.54 µM	19.1 µM	12.8 µM	33.6 µM	–
CC(=O)/C(=N\N=C(N)N)c1ccccc1	–	> 100 µM	–	> 100 µM	–	> 100 µM	–	> 100 µM	–	> 100 µM	–	> 100 µM	–
COc1cc(N)c(Cl)cc1C(=O)N[C@@H]1CCN(CCCOc2ccc(F)cc2)C[C@@H]1OC	27.4 µM	88.8 µM	> 100 µM	> 100 µM	61.8 µM	> 100 µM	27.3 µM	> 100 µM	–	–	> 100 µM	> 100 µM	–
Cc1cc(O)c2c(c1)OC1(C)CCC3C(C)(C)CCCC34COC2C14 (stereo not given)	–	29.1 µM	–	–	–	34.6 µM	–	–	–	–	–	–	27.1 µM
S=C(Nc1ccc(-c2nc3ccccc3s2)cc1)Nc1ccc(-c2nc3ccccc3s2)cc1	21.6 µM	46.1 µM	22.5 µM	52 µM	11.2 µM	26.2 µM	18.8 µM	> 100 µM	15.3 µM	53.6 µM	24.8 µM	73 µM	–
COc1ccc(N=c2nc3sc4cc(Cl)ccc4n3c(N)c2C#N)cc1	4.45 µM	> 100 µM	2.95 µM	9.08 µM	20.6 µM	> 100 µM	39.1 µM	> 100 µM	26.5 µM	> 88.6 µM	3.98 µM	> 100 µM	–
CCN(CC)c1ccc(/C=N/N=C(N)N)cc1	4 µM	17 µM	5.44 µM	29.8 µM	1.91 µM	4.8 µM	3.76 µM	24.5 µM	2.27 µM	13.5 µM	0.668 µM	3.04 µM	–
NC(=S)c1cccc(C2Nc3ccccc3O2)c1 (stereo not given)	–	> 100 µM	–	> 100 µM	–	> 100 µM	–	> 100 µM	–	> 100 µM	–	> 100 µM	–
COc1ccc(C(=O)c2ccccc2)c(O)c1	81.7 µM	> 100 µM	53.1 µM	> 100 µM	89.9 µM	> 100 µM	10.1 µM	> 100 µM	78.5 µM	> 100 µM	66.6 µM	> 100 µM	–
N#C/C(=C/C=C/c1cccc(Cl)c1)S(=O)c1ccccc1 (stereo not given)	1.1 µM	2.89 µM	0.278 µM	0.859 µM	0.251 µM	0.804 µM	0.234 µM	1.11 µM	0.398 µM	1.62 µM	0.448 µM	1.69 µM	–
CC(=O)c1nc(-c2ccc(C[C@@H](CNC(=O)CN(C)C)NC(=O)c3ccc(OC(C)C)c(Cl)c3)cc2)cn1C	0.0317 µM	2.54 µM	0.511 µM	18.3 µM	< 0.0181 µM	13.8 µM	0.0538 µM	20.1 µM	1.52 µM	13.8 µM	0.0297 µM	14 µM	–
CCOc1ccc2cc(-c3nn(CC4CCN(C)CC4)c4ncnc(N)c34)ccc2c1	15.8 µM	32.5 µM	14.7 µM	28.2 µM	16.6 µM	33.5 µM	–	–	5.9 µM	26.1 µM	12.2 µM	24.7 µM	–
COc1ccc2c(c1)[n+](=O)c(/C=C/C(=O)c1cc(OC)c(OC)c(OC)c1)c(C)n2[O-]	3.55 µM	23.5 µM	11.3 µM	39.5 µM	1.32 µM	3.45 µM	2.56 µM	14.7 µM	2.56 µM	19.1 µM	6.65 µM	> 100 µM	–
COc1ccc(C2=NNC(c3sc(Cl)nc3Cl)C2)cc1 (stereo not given)	3.47 µM	16.8 µM	10.2 µM	> 100 µM	2.23 µM	7.69 µM	2.68 µM	8.89 µM	–	–	3.25 µM	16.7 µM	–
